Here are results for nine compounds from patent US20250134903A1, “COMPOSITIONS AND METHODS FOR TREATING PAIN” (priority 2023, published 2025).

For one data set, the system named is PHN. The following applies: in vivo; cited from earlier work.
The test system of data set [1] is patients suffering from trigeminal neuralgia (TN). Kind of data set: Non-randomized clinical observations of Trimeprazine in patients (n=7) with trigeminal neuralgia. The class given is in vivo, human. To be noted: for overall efficacy on TN pain: seven TN patients, non-randomized. From the text:
A middle-aged patient suffers from classic trigeminal (Type 1) neuralgia presenting with sharp, lancinating, severe pain in their left face precipitated by showering, eating, facial animation, touch of their facial skin and nose, and brushing their teeth. The episodes of pain are initiated by the stimuli above and immediately stop all other activity until they subside in several seconds. Their behavior is modified to avoid the stimuli above, even affecting how they speak and eats. […] Their daily activities are dominated by fear of inducing another attack.
The patient began treatment with Trimeprazine 5 mg morning and evening.
The disease had caused cutaneous anesthesia in the right forehead and cheek. […] Beginning at about 19 years after the bout of Lyme disease they noted sharp lightning-like pains in their right cheek. Brief and usually during cutaneous stimulation, like being in a shower. There were perhaps one or two of these occurrences per year. At 22 years after the initial Lyme disease, they experienced a severe attack of Trigeminal Neuralgia (TN) affecting their right cheek (Type 1). There were on average 8 bouts of severe stabbing pain per day precipitated by facial animation, touching, opening their mouth to eat, brushing their teeth, and even a gust of cold wind. They treated themself with doxycycline, fearing a reactivation of Lyme disease.
They were quite miserable, being unable to even brush their teeth without precipitating a severe bout of pain.
Patient is a person who suffers from TN which began 3 years ago after a dental procedure. The TN was manifest by sharp, lancinating pain in the left side of their jaw (Type. 1). These periods of pain were episodic, precipitated by stimuli like brushing their teeth, at least once per day, with periods of vulnerability lasting 3-4 weeks each occurring 3-4 times per year. Their parent had suffered with the same pattern of TN. When started on Trimeprazine they were also taking Pregabalin.
Patient is a young person who developed severe ophthalmic herpes zoster involving the right side of their face and their right eye. They had extensive ocular involvement requiring medications for a full year. Their corneal difficulties were accompanied by a severe lingering neuralgia in the affected ophthalmic distribution of the trigeminal nerve (Type 2), which plagued their every waking hour. They were on 12 medications including carbamazepine 200 mg BID and pregabalin 150 mg TID, ophthalmic medications, and oxycodone as needed for pain relief.
This patient suffered from shingles on their forehead which was followed by lingering neuralgia in the affected ophthalmic distribution of the trigeminal nerve.

For data set [2] the following is noted: cited from earlier work.
The subject of data set [3] is post-herpetic neuralgia (PHN) pain. Kind of data set: Applicant's clinical observations of Trimeprazine tartrate in post-herpetic neuralgia. The class given is in vivo, human. The following applies: not a randomized clinical trial. The text has this: While the clinical observations are not from a randomized clinical trial and could be subject to placebo effects and other confounders, they offer a promising finding for this devastating facial pain condition.

Another data set addresses mu-opioid receptors (Homo sapiens, UniProt P35372). To be noted: cited from earlier work.
In another data set the test system is classic TN. To be noted: 100-400 mg/d; 8 patients with classic TN; cited from earlier work.
The conditions of data set [4]: 5% lidocaine plaster applied to skin; cited from earlier work.
A further data set deals with PHN symptoms. The following applies: human, in vivo; cited from earlier work.
Data set [5] has as its system TN. The following applies: 10 patients with TN; cited from earlier work.
For data set [6], the system named is TN. To be noted: 23 patients; add-on therapy; cited from earlier work.
A further data set has as its target histamine H1-receptor (Homo sapiens, UniProt P35367). To be noted: more potent; cited from earlier work.
The mark [7] stands for this setting: Example 5, four months or so after.

“Also recorded” adds a separate entry of the source.

histamine H1-receptor, sequence (P35367 whole entry, species assumed): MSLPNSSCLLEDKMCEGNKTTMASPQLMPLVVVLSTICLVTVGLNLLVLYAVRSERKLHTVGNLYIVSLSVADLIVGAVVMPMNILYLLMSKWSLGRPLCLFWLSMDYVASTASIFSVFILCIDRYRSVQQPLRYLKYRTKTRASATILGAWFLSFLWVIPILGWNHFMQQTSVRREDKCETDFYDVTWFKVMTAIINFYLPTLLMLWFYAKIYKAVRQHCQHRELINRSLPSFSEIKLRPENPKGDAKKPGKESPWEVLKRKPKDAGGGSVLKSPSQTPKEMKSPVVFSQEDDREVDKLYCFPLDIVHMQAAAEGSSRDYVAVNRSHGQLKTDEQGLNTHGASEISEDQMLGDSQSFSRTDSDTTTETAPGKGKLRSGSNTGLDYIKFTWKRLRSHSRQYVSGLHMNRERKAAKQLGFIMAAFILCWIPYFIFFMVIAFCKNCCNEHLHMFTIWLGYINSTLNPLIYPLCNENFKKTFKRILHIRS
mu-opioid receptors, sequence (P35372 whole entry): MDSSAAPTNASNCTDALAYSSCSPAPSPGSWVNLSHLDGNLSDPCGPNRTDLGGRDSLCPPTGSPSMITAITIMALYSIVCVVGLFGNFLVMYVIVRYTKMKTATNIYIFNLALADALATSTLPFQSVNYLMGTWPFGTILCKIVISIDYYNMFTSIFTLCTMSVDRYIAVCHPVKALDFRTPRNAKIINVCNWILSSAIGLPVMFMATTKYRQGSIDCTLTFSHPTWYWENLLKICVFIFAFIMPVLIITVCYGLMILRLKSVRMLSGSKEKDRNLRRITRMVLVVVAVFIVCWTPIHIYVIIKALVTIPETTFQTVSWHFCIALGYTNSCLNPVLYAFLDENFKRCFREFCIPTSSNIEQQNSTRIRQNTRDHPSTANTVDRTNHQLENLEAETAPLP

For `CC(C)C[C@H](CN)CC(=O)O` [pregabalin], in the data set on PHN, the “analgesic property relative to gabapentin” value is on record as 6 times.

The term LogP denotes the decadic logarithm of the partition coefficient of the neutral form, usually between octanol and water. With `CC(CN(C)C)CN1c2ccccc2Sc2ccccc21` (stereo not shown) [Trimeprazine], the pain entry is recorded as “all pain was gone” in data set [1] (Example 1, TN Type 1, 5 mg morning and evening, after four days of medication); “essentially pain free” in data set [1] (Example 3, elderly male, TN Type 1 uncontrolled with carbamazepine and gabapentin, 5 mg twice a day, by ten days after starting treatment). Further, the “intensity and frequency of the attacks” value in data set [1] (Example 1, middle-aged male, TN Type 1, 5 mg morning and evening, second day of the course) is reported as “in decline”. Further, the side-effects result in data set [1] (Example 1, 5 mg) is on record as “no side-effects other than drowsiness”. Also, the “later discomfort in face” value in data set [1] (Example 1, ½ to 1 pill of 5 mg once or twice a day) was “successfully alleviated”. Besides, the recurring sharp pains entry in [1] (Example 2, person, TN Type 1, recurrences at seven and eleven months after the TN attack, 5 mg twice a day) is given as “immediately stop all recurring pains”. Besides, the “recurrent attacks of TN” value in [1] (Example 2, in the 12 months since the last treatment) is reported as “no recurrent attacks of TN”. The duration of relief entry in data set [1] (Example 3, 5 mg twice a day) is listed as “enduring”. Besides, the tolerability entry in [1] (Example 3, 5 mg twice a day) is “except for some drowsiness, tolerated the medicine well”. Besides, the jaw pain entry in [1] (Example 4, person, TN Type 1, also taking Pregabalin, after a first course of 10 days, 5 mg BID) is “jaw pain was gone”. In addition, the “sensitive area on the side of head above ear” value in data set [1] (Example 4, second course 5 mg BID for several days) is “disappeared entirely”. Further, in data set [1] (Example 5, young person, TN Type 2 after ophthalmic herpes zoster, by 5 days after starting the medication), the improvement of neuralgia result was “some improvement”. The “average pain (patient-reported)” value in [1] (setting [7]) is reported as 2. For the same compound, in data set [1] (setting [7]), the “max pain (patient-reported)” value amounted to 5. The “patient-reported relief of head pain” value in data set [1] (Example 6, TN Type 2 after shingles, 5 mg BID, by 6 days after starting) was “it does help my head”. In addition, the “Clinical Outcome” value in data set [1] (Patient 1, TN Type 1) was “Relief, no additional”; in data set [1] (Patient 2, TN Type 1), “Relief, no additional”; in [1] (Patient 3, TN Type 1) it was “Relief, no additional”; in data set [1] (Patient 4, TN Type 1), “Relief, no additional”; in data set [1] (Patient 6, TN Type 2), “Better, can travel”; in data set [1] (Patient 7, TN Type 2) it was “Better, no additional”. Moreover, the Comment entry in [1] (Patient 1, TN Type 1) was “Pain gone day 3”; in [1] (Patient 2, TN Type 1), 3 subsequent attacks; in [1] (Patient 3, TN Type 1) it was ““So nice to be pain”; in data set [1] (Patient 4, TN Type 1), “Facial pain gone”; in [1] (Patient 5, TN Type 2) it was “Better and continuing”; in data set [1] (Patient 7, TN Type 2), ““No bother now””. For the same compound, the “overall efficacy on TN pain” value in [1] is “demonstrated efficacy; also recorded: significant pain relief”; in data set [1] (listed as trimeprazine), “reduced or relieved”. Also, in data set [1] (subset of TN patients treated with Trimeprazine), the “patients with long-term pain relief, no recurrence of symptoms for over 12 months” value was “two out of seven”. In [2], the LogP was 4.71.

For Trimeprazine tartrate, in data set [1], the “overall efficacy on TN pain” value was “effectiveness in alleviating pain”. In addition, the “effectiveness on PHN pain” value in [3] was “effectiveness in alleviating pain”.

Regarding `CC[C@@H](c1cccc(O)c1)[C@@H](C)CN(C)C` [Tapentadol], the “times less potent than morphine in binding mu-opioid receptors” value at mu-opioid receptors is listed as 18 times.

As for `CC1(C)O[C@@H]2[C@@H](CO[C@@]3(COS(N)(=O)=O)OC(C)(C)O[C@@H]23)O1` [Topiramate], the “patients in whom found effective” value with classic TN is 75%.

Regarding `CCN(CC)CC(=O)Nc1c(C)cccc1C` [Lidocaine], the “fraction of the drug reaching the systemic circulation” value in data set [4] is 3%.

As to Botulinum Toxin A [BTX-A], in the data set with PHN symptoms, the “cases in which effective in reducing pain” value is listed as 31%, the “cases with significant outcomes” value is 46.6% and the side effects entry is given as “mild”.

For the compound `CC[C@@H](C(N)=O)N1CCCC1=O` [levetiracetam], the improvement with TN [5] was 50-90%. Moreover, the “reduction in number of daily attacks” value with TN [6] was 62%.

On to `Cc1ccc(/C(=C\CN2CCCC2)c2ccccn2)cc1` [E-triprolidine], for which the “potency relative to Z-triprolidine” value on histamine H1-receptor is on record as 1000 fold.
